PMC12356538, “Targeting the SARS-CoV‑2 RNA Translation Initiation Element SL1 by Molecules of Low Molecular Weight” (Journal of the American Chemical Society, 2025)
Where two headings read alike, the source gives them in different places.

Columns and labels:
[1] = system: SL1 Δbulge RNA; format: binding, SARS-CoV-2
[2] = system: SARS-CoV-2 SL1 RNA (SL1 wt); format: binding; conditions: for wLOGSY factor / T2 reduction [%] / CSP [Hz]: 10 μM SL1 wt, 200 μM ligand; for wLOGSY factor / T2 reduction [%]: pH 6.2; for T2 reduction [%]: CPMG 100 vs 5 ms; for Rank: FBS ranking from summed ranks of CSP, wLOGSY and T2 results; for CSP [Hz]: ligand 1H CSP, [RNA]:[ligand] 1:20, pH 6.2; for FBS binding to SL1, in words: ligand-detected NMR
[3] = system: β-Globin-Nanoluciferase mRNA; assay: Cell-free translation assay in rabbit reticulocyte lysate, Nanoluciferase readout; format: biochemical; conditions: 0.2 μM mRNA, 2 μM compound
[4] = biological target: SL1 wt RNA; assay: NMR-based KD estimation, ligand-detected 1D-1H titration; format: binding, SARS-CoV-2
[5] = system: SL1 RNA; assay: RNA-detected NMR binding site mapping (2D-1H,1H-TOCSY and 1D-1H); design: species or system SARS-CoV-2; conditions: for 1H,1H CSPs [ppm] C16H5-H6 / 1H,1H CSPs [ppm] C19H5-H6 / 1H,1H CSPs [ppm] C20H5-H6 / 1H,1H CSPs [ppm] C21H5-H6 / 1H,1H CSPs [ppm] C28H5-H6 / 1H,1H CSPs [ppm] C33H5-H6 / 1H,1H CSPs [ppm] C34H5-H6 / 1H,1H CSPs [ppm] U9H5-H6 / 1H,1H CSPs [ppm] U10H5-H6 / 1H,1H CSPs [ppm] U11H5-H6 / 1H,1H CSPs [ppm] U13H5-H6 / 1H,1H CSPs [ppm] U17H5-H6 / 1H,1H CSPs [ppm] U18H5-H6 / 1H,1H CSPs [ppm] U25H5-H6 / 1H,1H CSPs [ppm] C15H5-H6 / 1H,1H CSPs [ppm] C32H5-H6: 2D TOCSY, RNA 150 μM, compound 1 mM, 298 K; for 1H CSPs [ppm] A12H2 / 1H CSPs [ppm] A29H2: RNA-detected 1D-1H
[6] = system: SL1 Δbulge-Nanoluciferase mRNA; format: biochemical, SARS-CoV-2
[7] = system: SL1 (wt)-Nanoluciferase mRNA; format: biochemical, SARS-CoV-2
[8] = pH 6.2
[9] = Suppl. Table 7, ligand constant at 100, SL1 wt RNA concentration 0-250, read-out: KDest
[10] = ligand 100 μM, SL1 RNA 0 to 200 or 250 μM, 298 K, 600 MHz, pH 6.2, read-out: KD est
[11] = Suppl. Table 7, ligand constant at 100, SL1 wt RNA concentration 0-200, read-out: KDest

Compound	wLOGSY factor [2]	T2 reduction [%] [2]	Rank ([2]; SL1 wt)	CSP [Hz] [2]	1H,1H CSPs [ppm] C16H5-H6 [5]	1H,1H CSPs [ppm] C19H5-H6 [5]	1H,1H CSPs [ppm] C20H5-H6 [5]	1H,1H CSPs [ppm] C21H5-H6 [5]	1H,1H CSPs [ppm] C28H5-H6 [5]	1H,1H CSPs [ppm] C33H5-H6 [5]	1H,1H CSPs [ppm] C34H5-H6 [5]	1H,1H CSPs [ppm] U9H5-H6 [5]	1H,1H CSPs [ppm] U10H5-H6 [5]	1H,1H CSPs [ppm] U11H5-H6 [5]	1H,1H CSPs [ppm] U13H5-H6 [5]	1H,1H CSPs [ppm] U17H5-H6 [5]	1H,1H CSPs [ppm] U18H5-H6 [5]	1H,1H CSPs [ppm] U25H5-H6 [5]	FBS result (CSP, wLOGSY, T2 reduction) in words [1]	Kd [4, 11]	further results
CNC(=N)Nc1nc2ccc(OC)cc2s1 [A.4]	1.21	77.83%	20	16.14 Hz	0.0103 ppm	0.0293 ppm	0.0526 ppm	0.0441 ppm	0.1355 ppm	0.0050 ppm	0.0072 ppm	0.0130 ppm	0.0146 ppm	0.0030 ppm	0.0999 ppm	0.0288 ppm	0.0191 ppm	0.0099 ppm	–	–	CSP [Hz] [1]: 8.19 Hz; Rank [1]: 1; T2 reduction [%] [1]: 90.18%; wLOGSY factor [1]: 0.69; FBS binding to SL1, in words ([2]; SL1 wt): strongest FBS effects; effect on translation of β-globin mRNA, in words [3]: boost; Kd [4, 9]: 102 µM; Kd [4, 10]: 102 ± 8 µM; binding site / selectivity for the bulge from CSP and LB mapping, in words [5]: bound the bulge less selectively; 1H CSPs [ppm] A12H2 [5]: 0.1560 ppm; 1H CSPs [ppm] A29H2 [5]: 0.0670 ppm; effect on translation of SL1 Δbulge mRNA, in words [6]: inhibitory effect; effect on translation of SL1 wt mRNA, in words [7]: inhibitory effect
CNC(=O)Nc1nc2c(OC)cc(OC)cc2s1 [A.11]	1.51	93.00%	19	4.50 Hz	0.0020 ppm	0.0036 ppm	0.0045 ppm	0.0061 ppm	0.0130 ppm	0.0010 ppm	0.0025 ppm	0.0040 ppm	0.0072 ppm	0.0311 ppm	0.0216 ppm	0.0010 ppm	0.0043 ppm	0.0045 ppm	no effects	–	1H,1H CSPs [ppm] C15H5-H6 [5]: 0.0010 ppm; 1H,1H CSPs [ppm] C32H5-H6 [5]: 0.0063 ppm; 1H CSPs [ppm] A12H2 [5]: 0.0400 ppm; 1H CSPs [ppm] A29H2 [5]: 0.0040 ppm; effect on translation of SL1 wt mRNA, in words [7]: no inhibition
CN(C)CC(=O)Nc1nc2ccc([N+](=O)[O-])cc2s1 [A.14]	0.46	100.00%	9	22.20 Hz	–	–	–	–	–	–	–	–	–	–	–	–	–	–	no effects	–	solubility, in words [8]: poor solubility; CSP values relative to A.2 ([2]; ligand CSP, SL1 wt): 2–3 times
COc1ccc(-c2nnc(NC(=O)CN(C)C)s2)cc1OC [A.31]	1.71	100.00%	1	24.42 Hz	0.0073 ppm	0.0042 ppm	0.0021 ppm	0.0010 ppm	0.0228 ppm	0.0067 ppm	0.0204 ppm	0.0104 ppm	0.0112 ppm	0.0256 ppm	0.0206 ppm	0.0067 ppm	0.0021 ppm	0.0122 ppm	no effects	146 µM	Kd [4, 10]: 146 ± 13 µM; binding site / selectivity for the bulge from CSP and LB mapping, in words [5]: weaker binding characteristics; 1H,1H CSPs [ppm] C15H5-H6 [5]: 0.0032 ppm; 1H,1H CSPs [ppm] C32H5-H6 [5]: 0.0130 ppm; 1H CSPs [ppm] A12H2 [5]: 0.0630 ppm; 1H CSPs [ppm] A29H2 [5]: 0.0000 ppm; effect on translation of SL1 wt mRNA, in words [7]: nonspecific effects
COc1ccc2nc(NC(=O)CN3CCC[C@H](N)C3)sc2c1 [A.36]	0.82	100.00%	2	30.18 Hz	0.0076 ppm	0.0036 ppm	0.0029 ppm	0.0010 ppm	0.0359 ppm	0.0057 ppm	0.0079 ppm	0.0100 ppm	0.0089 ppm	0.0063 ppm	0.0308 ppm	0.0045 ppm	0.0039 ppm	0.0120 ppm	no effects	218 µM	FBS binding to SL1, in words ([2]; SL1 wt): positive effect on SL1 binding; effect on translation of β-globin mRNA, in words [3]: increased translation efficiency; Kd [4, 10]: 218 ± 90 µM; binding site / selectivity for the bulge from CSP and LB mapping, in words [5]: weaker binding characteristics; 1H,1H CSPs [ppm] C15H5-H6 [5]: 0.0010 ppm; 1H,1H CSPs [ppm] C32H5-H6 [5]: 0.0186 ppm; 1H CSPs [ppm] A12H2 [5]: 0.0727 ppm; effect on translation of SL1 Δbulge mRNA, in words [6]: increased translation efficiency; effect on translation of SL1 wt mRNA, in words [7]: nonspecific effects
COc1cc(OC)c2nc(NC(=O)CN3CCN(C)CC3)sc2c1 [A.56]	0.00	100.00%	7	31.95 Hz	–	–	–	–	–	–	–	–	–	–	–	–	–	–	no effects	75.3 µM	–
COc1cc(OC)c2nc(NC(=O)CN3CCNCC3)sc2c1 [A.57]	0.00	100.00%	6	32.79 Hz	–	–	–	–	–	–	–	–	–	–	–	–	–	–	–	83.7 µM	CSP [Hz] [1]: 4.92 Hz; Rank [1]: 8; T2 reduction [%] [1]: 47.32%; wLOGSY factor [1]: 1.07
COc1ccc(-c2nnc(NC(=O)CN3CCC[C@H](N)C3)s2)cc1OC [A.58]	0.00	96.61%	10	39.18 Hz	–	–	–	–	–	–	–	–	–	–	–	–	–	–	–	77.5 µM	CSP [Hz] [1]: 9.24 Hz; Rank [1]: 2; T2 reduction [%] [1]: 73.56%; wLOGSY factor [1]: 0.00; scoring in the FBS ranking compared with lead A ([2]; SL1 wt): ~4 fold
COc1ccc(-c2nnc(NC(=O)CN3CCC[C@@H](N)C3)s2)cc1OC [A.59]	0.00	98.00%	10	38.70 Hz	–	–	–	–	–	–	–	–	–	–	–	–	–	–	–	90.7 µM	CSP [Hz] [1]: 9.18 Hz; Rank [1]: 4; T2 reduction [%] [1]: 65.47%; wLOGSY factor [1]: 0.00; scoring in the FBS ranking compared with lead A ([2]; SL1 wt): ~4 fold
CNC(=O)Nc1nc2ccc(OC)cc2s1 [A]	0.78	66.95%	37	3.96 Hz	0.0050 ppm	0.0050 ppm	0.0050 ppm	0.0095 ppm	0.0502 ppm	0.0042 ppm	0.0054 ppm	0.0117 ppm	0.0179 ppm	0.0824 ppm	0.0242 ppm	0.0100 ppm	0.0010 ppm	0.0160 ppm	no effects	–	solubility, in words [8]: solubility issues; CSP [Hz] [1]: 0.00 Hz; Normalized abs. CSP SL1 wt - CSP SL1 Δbulge (normalized selectivity score) [1]: 0.59; abs. CSP SL1 wt - CSP SL1 Δbulge [1]: 3.96; Normalized FBS score ([2]; SL1 wt): 1.00; 1 - normalized FBS score ([2]; SL1 wt, 0 lowest, 1 highest score): 0.00; FBS score ([2]; SL1 wt, radar chart values): 37; effect on translation of β-globin mRNA, in words [3]: increased translation efficiency; Kd [4, 9]: 136 µM; Kd [4, 10]: 136 ± 34 µM; binding site / selectivity for the bulge from CSP and LB mapping, in words [5]: binds selectively to the bulge; 1H,1H CSPs [ppm] C15H5-H6 [5]: 0.0081 ppm; 1H,1H CSPs [ppm] C32H5-H6 [5]: 0.0124 ppm; 1H CSPs [ppm] A12H2 [5]: 0.0041 ppm; effect on translation of SL1 Δbulge mRNA, in words [6]: increased translation efficiency; Normalized inhibition rate (normalized activity score) [7]: -0.03; SL1 wt inhibition rate [%] [7]: -1.66%; time-resolved SL1-driven translation, in words [7]: more subtle temporal effects
CC(=O)c1ccc(NC(=O)CN2CCCC2)cc1 [B]	–	–	–	–	0.0120 ppm	0.0092 ppm	0.0030 ppm	0.0058 ppm	0.0263 ppm	0.0110 ppm	0.0021 ppm	0.0063 ppm	0.0122 ppm	0.0220 ppm	0.0256 ppm	0.0061 ppm	0.0064 ppm	0.0085 ppm	–	–	solubility, in words [8]: precipitation; Kd [4, 9]: 150 µM; Kd [4, 10]: 150 ± 46 µM; 1H,1H CSPs [ppm] C15H5-H6 [5]: 0.0208 ppm; 1H,1H CSPs [ppm] C32H5-H6 [5]: 0.0336 ppm
